Reference: patent US11344601B2, “Tumor microenvironment-related target TAK1 and application thereof in inhibition of tumor” (Shanghai Institutes for Biological Sciences, Chinese …, priority 2017, dated 2022)

Tests used:
[1] = tested on: PC3/PSC27 xenograft tumors; test: Time-extended preclinical treatment, survival of PC3/PSC27 tumor-bearing mice; assay type: in vivo
Method: In the preclinical chemotherapy trial, mice subcutaneously transplanted with tumors were fed standard experimental diet. After 2 weeks, the chemotherapeutics mitoxantrone (dose of 0.2 mg/kg) and/or SASP inhibitors (500 μl, dose of 10 mg/kg, RAD001, SB203580 and 5Z-7 were purchased from Tocris; LYTAK, purchased from Lilly Co ((Indianapolis, Ind.), 5 mg/kg) were administrated intraperitoneally. The timepoint was the first day of Week 3, 5, 7, and the whole course of treatment was composed of three cycles of administration, each cycle lasted for 2 weeks. After the course of treatment, mouse […] was collected for tumor measurement and histological analysis. Each mouse received cumulatively 0.6 mg mitoxantrone/kg body weight and 30 mg SASP inhibitor/kg body (15 mg/kg body weight for LYTAK1). […]
Although there was no ectopic metastasis of cancer cells, the current inventor questions whether the microenvironment causes other pathological consequences other than tumor growth and drug resistance. To this end, the present inventor evaluated the survival of multiple groups of animals under a batch of time-extended preclinical treatment conditions to determine the objective results of tumor progression. All animals were monitored for tumor volume and recognized as severe disease when the tumor volume reached a certain upper limit (size 2000 mm^3).

NF-κB complex = test: NF-κB activation in bleomycin-treated stromal cells (nuclear translocation, luciferase reporter); assay type: cell-based, human
Method: FIG. 22. The stromal cells pre-transduced with the NF-κB transcriptional luciferase reporter vector were treated with bleomycin and/or RAD001. The cells were collected on Day 7 and detected for the fluorescence signal intensity of the reporter vector.
FIG. 32. Detection of NF-kB transcriptional activity based on the reporter vector. Stromal cells were treated with bleomycin along with the PI3K small molecule inhibitor LY294002 (1 μM), Akt inhibitor MK-2206 (100 nM), mTOR inhibitor RAD001 (50 nM), p38 inhibitor SB203580 (10 μM) and TAK1 inhibitor 5Z-7 (500 nM), respectively, and cell lysates were used for determining luciferase activity.
The […] vector pBABE-puro-IκBα-mut (Super repressor) containing two phosphorylated mutant sites of IKK at S32A and S34A on the IκBα protein encoding sequence were used for transfection of lentivirus-packing cell line phoenix. Lentiviruses were subsequently used to infect PSC27 stromal cell line, whereas 1 μg/ml puromycin was used to screen positive clones. As another method, 5 μm of the small molecule inhibitor Bay11-7082 (purchased from Selleck) was used for NF-κB activity control. Stromal cells were subsequently exposed to several different forms of cytotoxicity, with the resulting phenotype recorded in time, and the relevant gene expression analyzed. The resulted conditioned culture medium produced from cells processed in this way was collected for various detection of epithelial cells.
Even so, is TAK1 activated indirectly by upstream DDR signaling associated with activation of a core transcription factor, NF-κB complex involved in the broad-spectrum expression of the SASP? The NF-κB complex was previously reported to be mediated by mono-ubiquitination of IκB kinase subunit γ (IKKγ) in cytoplasm. After isolating nucleus from cytoplasmic proteins using a kit, the inventor finds that TAK1 phosphorylation is associated with nuclear translocation of p50 and p65, the two main subunits of NF-κB complex (FIG. 4).

p38MAPK, JNK, ATM = test: Western blot of JNK, p38MAPK and ATM phosphorylation in damaged stromal cells; assay type: cell-based, human; conditions: Day 7 after bleomycin and/or 5Z-7
Method: The nitrocellulose filter membrane was blocked at room temperature for 1 h in the blocking solution (TBST containing 5% skim milk powder (0.1% Tween-20 in TBS)), incubated overnight at 4° C. in a primary antibody solution, rinsed at TBST room temperature for 3 times, each for 2 min. The corresponding secondary antibody conjugated with HRP prepared with the blocking solution was added, the filter membrane was incubated at room temperature for 0.5 h. The filter membrane was rinsed with PBST at room temperature for 3 times, each for 2 min.

COc1cc(O)c2c(c1)/C=C/C[C@H](O)[C@H](O)C(=O)/C=C\C[C@H](C)OC2=O [5Z-7, 5z-7-oxozeaenol]
survival of mice ([1]; 5Z-7 alone): only slightly prolonged
prolongation of disease-free survival ([1]; MIT/5Z-7 combination vs mitoxantrone alone, severe disease at tumor size 2000 mm^3): about 50%
NF-κB transcriptional activity (reporter vector) (NF-κB complex; bleomycin plus inhibitor, luciferase reporter): significantly reduced
phosphorylation of TAK1 and nuclear translocation of p50/p65 (NF-κB complex; bleomycin-treated stromal cells, cytosolic and nuclear proteins): significantly inhibited
inhibitory effect on NF-κB activation and IL-8 compared with the other inhibitors (NF-κB complex; vs LY294002, MK-2206, SB203580): stronger inhibitory effect
phosphorylation of JNK and p38MAPK (p38MAPK, JNK, ATM): decreased significantly
phosphorylation status of ATM stimulated by DNA damage (p38MAPK, JNK, ATM): does not depend on whether TAK1 activity is inhibited
